Reference: patent US20240115654A1, “INTRAVENOUS ADMINISTRATION OF ENGINEERED ANTIMICROBIAL AMPHIPHILIC PEPTIDES” (priority 2021, published 2024)

Experiments:
[1] = system: Acinetobacter baumannii ATCC BAA-1797 (MDR); format: cell-based; details: Acinetobacter baumannii ATCC BAA-1797 (MDR)
In short: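 Test medium: Mueller Hinton II broth with 0.002% polysorbate 80. Organisms were exposed at ~5×10^5 CFU/mL to two-fold peptide dilutions, maximum 32 mcg/mL final, incubated at 35° C for 16–20 hrs; lowest concentration without visible growth recorded.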

[2] = system: Pseudomonas aeruginosa ATCC 27853 (non-MDR; QC); details: P. aeruginosa ATCC 27853; established CLSI QC range; cited from earlier work

For Colistin [reference compound], which MIC [1] is on record?
Its MIC is 0.5 µg/mL.

And the “MIC QC range (in parentheses under the MIC)” value [2]?
The value was “(0.5-4) μg/mL”.
